Test results: PubChem BioAssay AID328 (DTP/NCI, 2004)
Several values for one entry are separate records, joined by “and”; a condition that tells them apart may be missing. Identical values can stand only once. Inconclusive results and toxic doses are left out.

Test system: BDF1 mice, P388 leukemia ip, median survival T/C
Test: NCI In Vivo Anticancer Drug Screen. Data for tumor model P388 Leukemia (intraperitoneal) in B6D2F1 (BDF1) mice
Settings: endpoint: median survival time, higher = longer survival
Method in brief: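 Mice carrying the transplantable tumour receive compound or vehicle. Survival is followed in each arm, and the treated measure is divided by the vehicle measure.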

[1] = dose: 100.0 mg/kg/injection, schedule: Q01DX009 (ip), vehicle: saline
[2] = dose: 100.0 mg/kg/injection, schedule: Q04DX003 (ip), vehicle: saline
[3] = dose: 200.0 mg/kg/injection, schedule: Q04DX003 (ip), vehicle: saline
[4] = dose: 400.0 mg/kg/injection, schedule: Q01DX009 (ip), vehicle: saline
[5] = dose: 400.0 mg/kg/injection, schedule: Q04DX003 (ip), vehicle: saline
[6] = dose: 25.0 mg/kg/injection, schedule: Q04DX003 (ip), vehicle: saline with Tween-80
[7] = dose: 50.0 mg/kg/injection, schedule: Q04DX003 (ip), vehicle: saline with Tween-80
[8] = dose: 100.0 mg/kg/injection, schedule: Q04DX003 (ip), vehicle: saline with Tween-80
[9] = dose: 200.0 mg/kg/injection, schedule: Q04DX003 (ip), vehicle: saline with Tween-80
[10] = dose: 37.5 mg/kg/injection, schedule: Q01DX009 (ip), vehicle: saline with Tween-80
[11] = dose: 75.0 mg/kg/injection, schedule: Q01DX009 (ip), vehicle: saline with Tween-80
[12] = dose: 25.0 mg/kg/injection, schedule: Q01DX009 (ip), vehicle: saline with Tween-80
[13] = dose: 50.0 mg/kg/injection, schedule: Q01DX009 (ip), vehicle: saline with Tween-80
[14] = dose: 100.0 mg/kg/injection, schedule: Q01DX009 (ip), vehicle: saline with Tween-80
[15] = dose: 100.0 mg/kg/injection, schedule: Q01DX005 (ip), vehicle: saline with Tween-80
[16] = dose: 200.0 mg/kg/injection, schedule: Q01DX009 (ip), vehicle: saline with Tween-80
[17] = dose: 6.25 mg/kg/injection, schedule: Q01DX009 (ip), vehicle: saline
[18] = dose: 25.0 mg/kg/injection, schedule: Q01DX009 (ip), vehicle: saline
[19] = dose: 25.0 mg/kg/injection, schedule: Q04DX003 (ip), vehicle: saline
[20] = dose: 50.0 mg/kg/injection, schedule: Q01DX009 (ip), vehicle: saline
[21] = dose: 50.0 mg/kg/injection, schedule: Q01DX009 (ip), vehicle: water
[22] = dose: 100.0 mg/kg/injection, schedule: Q01DX009 (ip), vehicle: water

In the case of S=C(S)N1CCOCC1, the T/C [1] was 91 % of control, the T/C [2] was 100 % of control and the T/C (dose: 200.0 mg/kg/injection, schedule: Q01DX009 (ip), vehicle: saline) was 100 % of control. For the same molecule, the T/C [3] was 95 % of control, the T/C [4] was 95 % of control and the T/C [5] was 86 % of control.
In the case of O=C1CC(N2C(=O)c3ccccc3C2=O)C(=O)N1 (stereo unspecified), the T/C [6] was 101 % of control, the T/C [7] was 103 % of control and the T/C [8] was 103 % of control. For the same molecule, the T/C [9] was 99 % of control.
For C=CC(=O)NCNC(=O)C=C, the T/C (dose: 132.0 mg/kg/injection, schedule: Q04DX003 (ip), vehicle: saline with Tween-80) was 118 % of control and the T/C (dose: 300.0 mg/kg/injection, schedule: Q04DX003 (ip), vehicle: saline with Tween-80) was 222 % of control.
With Cc1[nH][nH]c(=O)c1N=O the T/C (dose: 18.75 mg/kg/injection, schedule: Q01DX009 (ip), vehicle: saline with Tween-80) was 92 % of control, the T/C [10] was 99 % of control and the T/C [11] was 99 % of control.
In the case of O=C(NC(=O)c1c(F)cccc1F)Nc1ccc([N+](=O)[O-])cn1, the T/C [12] was 96 % of control, the T/C [13] was 90 % of control and the T/C [14] was 90 % of control.
For CO[C@H](C)[C@](O)(C(=O)OCC1=CC[N+]2([O-])CC[C@H](O)[C@@H]12)C(C)C (stereo partly specified), the T/C (dose: 40.0 mg/kg/injection, schedule: Q01DX010 (ip), vehicle: saline) was 100 % of control, the T/C (dose: 80.0 mg/kg/injection, schedule: Q01DX010 (ip), vehicle: saline) was 105 % of control and the T/C (dose: 160.0 mg/kg/injection, schedule: Q01DX010 (ip), vehicle: saline) was 116 % of control. For the same molecule, the T/C (dose: 200.0 mg/kg/injection, schedule: Q01DX007 (ip), vehicle: water) was 117 % of control, the T/C (dose: 400.0 mg/kg/injection, schedule: Q01DX007 (ip), vehicle: water) was 119 % of control and the T/C (dose: 800.0 mg/kg/injection, schedule: Q01DX007 (ip), vehicle: water) was 119 % of control. The T/C (dose: 1600.0 mg/kg/injection, schedule: Q01DX007 (ip), vehicle: water) was 94 % of control.
For CCC(=O)c1cc([N+](=O)[O-])ccc1N, the T/C [7] was 90 % of control, the T/C [8] was 95 % of control and the T/C [9] was 109 % of control.
In the case of CC(C)(C)C1COP(=O)(c2ccccc2)N(c2ccccc2)C1 (stereo unspecified), the T/C (dose: 50.0 mg/kg/injection, schedule: Q01DX005 (ip), vehicle: saline with Tween-80) was 92 % of control and the T/C [15] was 91 % of control.
For COc1cccc(/C=C/[N+](=O)[O-])c1, the T/C (dose: 15.0 mg/kg/injection, schedule: Q01DX009 (ip), vehicle: saline with Tween-80) was 108 % of control, the T/C (dose: 20.0 mg/kg/injection, schedule: Q01DX009 (ip), vehicle: Klucel (hydroxypropylcellulose) (HPC)) was 107 % of control and the T/C (dose: 30.0 mg/kg/injection, schedule: Q01DX009 (ip), vehicle: Klucel (hydroxypropylcellulose) (HPC)) was 115 % of control. For the same molecule, the T/C (dose: 60.0 mg/kg/injection, schedule: Q01DX009 (ip), vehicle: saline with Tween-80) was 100 % of control.
C[C@]12CCCC[C@@H]1CC[C@@H]1[C@@H]2[C@@H](O)C[C@@]2(C)[C@H]1CC[C@]2(C)O was tested, and the T/C [13] was 104 % of control, the T/C [14] was 95 % of control and the T/C [16] was 100 % of control.
In the case of CCCCC(=O)NN, the T/C (dose: 12.5 mg/kg/injection, schedule: Q04DX003 (ip), vehicle: saline with Tween-80) was 99 % of control, the T/C [6] was 103 % of control and the T/C [7] was 110 % of control. The T/C [8] was 100 % of control and the T/C [9] was 91 % of control.
In the case of Cc1cccc2cc3cccc[n+]3cc12, the T/C (dose: 1.56 mg/kg/injection, schedule: Q01DX009 (ip), vehicle: saline) was 104 % of control, the T/C (dose: 3.12 mg/kg/injection, schedule: Q01DX009 (ip), vehicle: saline) was 104 % of control and the T/C [17] was 109 % of control. For the same molecule, the T/C (dose: 6.75 mg/kg/injection, schedule: Q04DX003 (ip), vehicle: saline) was 105 % of control, the T/C (dose: 9.2 mg/kg/injection, schedule: Q01DX009 (ip), vehicle: saline) was 109 % of control and the T/C (dose: 13.5 mg/kg/injection, schedule: Q04DX003 (ip), vehicle: saline) was 90 % of control.
CCN(CC)c1ccc(N=Cc2ccccc2S(=O)(=O)O)cc1 was tested, and the T/C [17] was 100 % of control, the T/C (dose: 6.25 mg/kg/injection, schedule: Q04DX003 (ip), vehicle: saline) was 104 % of control and the T/C (dose: 12.5 mg/kg/injection, schedule: Q01DX009 (ip), vehicle: saline) was 100 % of control. The T/C (dose: 12.5 mg/kg/injection, schedule: Q04DX003 (ip), vehicle: saline) was 109 % of control, the T/C [18] was 100 % of control and the T/C [19] was 104 % of control.
In the case of COc1ccc(/C=C/C(=N\O)c2ccc(OC)c(OC)c2)cc1OC, the T/C [18] was 118 % of control, the T/C [19] was 105 % of control and the T/C [20] was 97 % of control. For the same molecule, the T/C (dose: 50.0 mg/kg/injection, schedule: Q04DX003 (ip), vehicle: saline) was 96 % of control, the T/C [1] was 120 % of control and the T/C [2] was 105 % of control. The T/C [3] was 114 % of control, the T/C [4] was 103 % of control and the T/C [5] was 105 % of control.
For C=CC(C)(C)c1cc2cc3c(cc2oc1=O)OC(C(C)(C)OC(C)=O)C3 (stereo unspecified), the T/C [2] was 107 % of control and the T/C [3] was 104 % of control.
For Nc1nc2ncc(CNc3ccc(C(=O)NC(CCC(=O)O)C(=O)O)cn3)nc2c(=O)[nH]1 (stereo unspecified), the T/C [10] was 92 % of control, the T/C (dose: 62.5 mg/kg/injection, schedule: Q01DX009 (ip), vehicle: saline with Tween-80) was 92 % of control and the T/C [11] was 107 % of control.
C1=CC(=P(c2ccccc2)(c2ccccc2)c2ccccc2)C=C1 was tested, and the T/C (dose: 50.0 mg/kg/injection, schedule: Q01DX010 (ip), vehicle: saline) was 100 % of control, the T/C (dose: 100.0 mg/kg/injection, schedule: Q01DX010 (ip), vehicle: saline) was 100 % of control and the T/C (dose: 200.0 mg/kg/injection, schedule: Q01DX010 (ip), vehicle: saline) was 100 % of control. The T/C (dose: 400.0 mg/kg/injection, schedule: Q01DX010 (ip), vehicle: saline) was 100 % of control.
In the case of CCOc1ccc(N2CC(=O)N3CCCN3C(=O)C2)cc1, the T/C [15] was 88 % of control.
With N/C(=N/O)c1[nH]cnc1N the T/C (dose: 12.5 mg/kg/injection, schedule: Q01DX009 (ip), vehicle: water) was 101 % of control, the T/C (dose: 25.0 mg/kg/injection, schedule: Q01DX009 (ip), vehicle: water) was 97 % of control and the T/C [21] was 103 % of control. For the same molecule, the T/C [22] was 103 % of control.
In the case of Cc1ccccc1P(=O)(c1ccccc1C)c1ccccc1C, the T/C [12] was 90 % of control, the T/C [13] was 94 % of control and the T/C [14] was 94 % of control.
With CC(=O)CC(C)=O.CC(=O)CC(C)=O.Cn1ccnc1.Cn1ccnc1.[Ni] the T/C (dose: 12.5 mg/kg/injection, schedule: Q04DX002 (ip), vehicle: saline) was 103 % of control, the T/C (dose: 25.0 mg/kg/injection, schedule: Q04DX002 (ip), vehicle: saline) was 107 % of control and the T/C (dose: 50.0 mg/kg/injection, schedule: Q04DX002 (ip), vehicle: saline) was 119 % of control.
C=CCSc1nc(N)nc2c1ncn2C1CC(O)C(CO)O1 (stereo unspecified) was tested, and the T/C [18] was 102 % of control, the T/C [20] was 114 % of control and 111 % of control and the T/C [1] was 123 % of control and 95 % of control. The T/C [2] was 104 % of control, the T/C [16] was 181 % of control and the T/C [3] was 122 % of control and 94 % of control and 100 % of control. For the same molecule, the T/C (dose: 300.0 mg/kg/injection, schedule: Q01DX009 (ip), vehicle: saline with Tween-80) was 154 % of control, the T/C [4] was 107 % of control and the T/C [5] was 99 % of control and 104 % of control.
In the case of Cn1cnccc1=O, the T/C [21] was 122 % of control, the T/C [22] was 121 % of control and the T/C (dose: 100.0 mg/kg/injection, schedule: Q04DX003 (ip), vehicle: water) was 118 % of control. For the same molecule, the T/C (dose: 200.0 mg/kg/injection, schedule: Q01DX009 (ip), vehicle: water) was 102 % of control, the T/C (dose: 200.0 mg/kg/injection, schedule: Q04DX003 (ip), vehicle: water) was 106 % of control and the T/C (dose: 400.0 mg/kg/injection, schedule: Q01DX009 (ip), vehicle: water) was 103 % of control. The T/C (dose: 400.0 mg/kg/injection, schedule: Q04DX003 (ip), vehicle: water) was 115 % of control.
With CSc1ncncc1N the T/C [20] was 105 % of control and the T/C [1] was 105 % of control.
